Assay results published in patent US9469650B2, “Melampomagnolide B derivatives” (BOARD OF TRUSTEES OF THE UNIVERSITY OF ARKANSAS, priority 2013, dated 2016).

How the values were obtained:
[1] = tested on: CCRF-CEM; test: panel of 60 human tumor cell lines, growth inhibition (Leukemia)
[2] = tested on: M14; test: panel of 60 human tumor cell lines, growth inhibition (Melanoma)
[3] = tested on: MDA-MB-435; test: as above
[4] = tested on: SF-539; test: panel of 60 human tumor cell lines, growth inhibition (CNS Cancer)
[5] = tested on: COLO 205; test: panel of 60 human tumor cell lines, growth inhibition (Colon Cancer)
[6] = tested on: HCT-15; test: as above
[7] = tested on: HT29; test: as above; conditions: for Percent Growth: HT29
[8] = tested on: KM12; test: as above
[9] = tested on: ACHN; test: panel of 60 human tumor cell lines, growth inhibition (Renal Cancer)
[10] = tested on: SN12C; test: as above
[11] = tested on: MDA-MB-231/ATCC; test: panel of 60 human tumor cell lines, growth inhibition (Breast Cancer); conditions: for Percent Growth: MDA-MB-231/ATCC
[12] = tested on: PC-3; test: panel of 60 human tumor cell lines, growth inhibition (Prostate Cancer)
[13] = tested on: HOP-92; test: panel of 60 human tumor cell lines, growth inhibition (Non-Small Cell Lung Cancer); conditions: for Percent Growth: HOP-92; for GI50: HOP-92, HOP-92
[14] = tested on: NCI-H226; test: as above
[15] = tested on: NCI-H23; test: as above
[16] = tested on: NCI-H460; test: as above
[17] = tested on: NCI-H522; test: as above

## C=C1C(=O)O[C@H]2[C@H]1CC/C(COC(=O)NCCc1ccccn1)=C\CC[C@@]1(C)O[C@@H]21 [JVM 61, ((1aR,7aS,10aS,10bS,E)-1a-methyl-8-methylene-9-oxo-1a,2,3,6,7,7a,8,9,10a,10b-decahydrooxireno[2′,3′:9,10]cyclodeca[1,2-b]furan-5-yl)methyl-(2-(pyridin-2-yl)ethyl)carbamate]
[1]; Homo sapiens
  GI50: 2.65 µM
[1]; Homo sapiens, 5-dose assay
  GI50: 2.65 µM
[1]; Homo sapiens, read-out: LC50
  CC50: > 100 µM
[1]; Homo sapiens, read-out: TGI
  IC (TGI): 8.59 µM
[1]; Log10 Concentration −4.0
  Percent Growth: −39%
[1]; Log10 Concentration −5.0
  Percent Growth: −6%
[1]; Log10 Concentration −6.0
  Percent Growth: 91%
[1]; Log10 Concentration −7.0
  Percent Growth: 100%
[1]; Log10 Concentration −8.0
  Percent Growth: 104%
[2]; Homo sapiens, M14
  GI50: 5.58 µM
[2]; Homo sapiens, M14, read-out: LC50
  CC50: 66.7 µM
[2]; Homo sapiens, M14, read-out: TGI
  IC (TGI): 21.6 µM
[2]; M14, Log10 Concentration −4.0
  Percent Growth: −68%
[2]; M14, Log10 Concentration −5.0
  Percent Growth: 34%
[2]; M14, Log10 Concentration −6.0
  Percent Growth: 97%
[2]; M14, Log10 Concentration −7.0
  Percent Growth: 102%
[2]; M14, Log10 Concentration −8.0
  Percent Growth: 100%
[3]; Homo sapiens, MDA-MB-435
  GI50: 6.01 µM
[3]; Homo sapiens, MDA-MB-435, read-out: LC50
  CC50: 82.4 µM
[3]; Homo sapiens, MDA-MB-435, read-out: TGI
  IC (TGI): 24.7 µM
[3]; MDA-MB-435, Log10 Concentration −4.0
  Percent Growth: −58%
[3]; MDA-MB-435, Log10 Concentration −5.0
  Percent Growth: 38%
[3]; MDA-MB-435, Log10 Concentration −6.0
  Percent Growth: 94%
[3]; MDA-MB-435, Log10 Concentration −7.0
  Percent Growth: 94%
[3]; MDA-MB-435, Log10 Concentration −8.0
  Percent Growth: 97%
[4]; Homo sapiens, SF-539
  GI50: 5.77 µM
[4]; Homo sapiens, SF-539, read-out: LC50
  CC50: 43.2 µM
[4]; Homo sapiens, SF-539, read-out: TGI
  IC (TGI): 15.4 µM
[4]; SF-539, Log10 Concentration −4.0
  Percent Growth: −99%
[4]; SF-539, Log10 Concentration −5.0
  Percent Growth: 36%
[4]; SF-539, Log10 Concentration −6.0
  Percent Growth: 96%
[4]; SF-539, Log10 Concentration −7.0
  Percent Growth: 97%
[4]; SF-539, Log10 Concentration −8.0
  Percent Growth: 103%
[5]; COLO 205, Log10 Concentration −4.0
  Percent Growth: −79%
[5]; COLO 205, Log10 Concentration −5.0
  Percent Growth: 3%
[5]; COLO 205, Log10 Concentration −6.0
  Percent Growth: 107%
[5]; COLO 205, Log10 Concentration −7.0
  Percent Growth: 108%
[5]; COLO 205, Log10 Concentration −8.0
  Percent Growth: 104%
[5]; Homo sapiens, COLO 205
  GI50: 3.54 µM
[5]; Homo sapiens, COLO 205, read-out: LC50
  CC50: 44.6 µM
[5]; Homo sapiens, COLO 205, read-out: TGI
  IC (TGI): 11 µM
[6]; HCT-15, Log10 Concentration −4.0
  Percent Growth: −81%
[6]; HCT-15, Log10 Concentration −5.0
  Percent Growth: 22%
[6]; HCT-15, Log10 Concentration −6.0
  Percent Growth: 89%
[6]; HCT-15, Log10 Concentration −7.0
  Percent Growth: 97%
[6]; HCT-15, Log10 Concentration −8.0
  Percent Growth: 98%
[6]; Homo sapiens, HCT-15
  GI50: 3.5 µM
[6]; Homo sapiens, HCT-15, read-out: LC50
  CC50: 50.1 µM
[6]; Homo sapiens, HCT-15, read-out: TGI
  IC (TGI): 15.4 µM
[7]; Log10 Concentration −4.0
  Percent Growth: −78%
[7]; Log10 Concentration −5.0
  Percent Growth: 24%
[7]; Log10 Concentration −6.0
  Percent Growth: 110%
[7]; Log10 Concentration −7.0
  Percent Growth: 106%
[7]; Log10 Concentration −8.0
  Percent Growth: 104%
[7]; Homo sapiens, HT-29
  GI50: 4.69 µM
[7]; Homo sapiens, HT-29, read-out: LC50
  CC50: 53.1 µM
[7]; Homo sapiens, HT-29, read-out: TGI
  IC (TGI): 17.2 µM
[8]; Homo sapiens, KM12
  GI50: 16.5 µM
[8]; Homo sapiens, KM12, read-out: LC50
  CC50: 62.2 µM
[8]; KM12
  TGI: 3.21E−5
[8]; KM12, Log10 Concentration −4.0
  Percent Growth: −86%
[8]; KM12, Log10 Concentration −5.0
  Percent Growth: 88%
[8]; KM12, Log10 Concentration −6.0
  Percent Growth: 103%
[8]; KM12, Log10 Concentration −7.0
  Percent Growth: 107%
[8]; KM12, Log10 Concentration −8.0
  Percent Growth: 105%
[9]; Homo sapiens
  GI50: 2.75 µM
[9]; Homo sapiens, read-out: LC50
  CC50: 34.5 µM
[9]; Homo sapiens, read-out: TGI
  IC (TGI): 11.3 µM
[9]; Log10 Concentration −4.0
  Percent Growth: −98%
[9]; Log10 Concentration −5.0
  Percent Growth: 5%
[9]; Log10 Concentration −6.0
  Percent Growth: 85%
[9]; Log10 Concentration −7.0
  Percent Growth: 97%
[9]; Log10 Concentration −8.0
  Percent Growth: 102%
[10]; Homo sapiens
  GI50: 6.61 µM
[10]; Homo sapiens, read-out: LC50
  CC50: 66.3 µM
[10]; Homo sapiens, read-out: TGI
  IC (TGI): 25.4 µM
[10]; Log10 Concentration −4.0
  Percent Growth: −70%
[10]; Log10 Concentration −5.0
  Percent Growth: 41%
[10]; Log10 Concentration −6.0
  Percent Growth: 91%
[10]; Log10 Concentration −7.0
  Percent Growth: 92%
[10]; Log10 Concentration −8.0
  Percent Growth: 95%
[11]; Homo sapiens, MDA-MB-231
  GI50: 11.4 µM
[11]; Homo sapiens, MDA-MB-231, read-out: LC50
  CC50: 56.4 µM
[11]; Homo sapiens, MDA-MB-231, read-out: TGI
  IC (TGI): 25.4 µM
[11]; Log10 Concentration −4.0
  Percent Growth: −86%
[11]; Log10 Concentration −5.0
  Percent Growth: 58%
[11]; Log10 Concentration −6.0
  Percent Growth: 96%
[11]; Log10 Concentration −7.0
  Percent Growth: 100%
[11]; Log10 Concentration −8.0
  Percent Growth: 103%
[12]; Homo sapiens, PC-3
  GI50: 15.6 µM
[12]; Homo sapiens, PC-3, read-out: LC50
  CC50: 76.8 µM
[12]; Homo sapiens, PC-3, read-out: TGI
  IC (TGI): 35.7 µM
[12]; PC-3, Log10 Concentration −4.0
  Percent Growth: −67%
[12]; PC-3, Log10 Concentration −5.0
  Percent Growth: 83%
[12]; PC-3, Log10 Concentration −6.0
  Percent Growth: 97%
[12]; PC-3, Log10 Concentration −7.0
  Percent Growth: 95%
[12]; PC-3, Log10 Concentration −8.0
  Percent Growth: 98%
[13]; Log10 Concentration −4.0
  Percent Growth: −87%
[13]; Log10 Concentration −5.0
  Percent Growth: 12%
[13]; Log10 Concentration −6.0
  Percent Growth: 71%
[13]; Log10 Concentration −7.0
  Percent Growth: 66%
[13]; Log10 Concentration −8.0
  Percent Growth: 0.2%
[13]; Homo sapiens
  GI50: 2.25 µM
[13]; Homo sapiens, 5-dose assay
  GI50: 2.25 µM
[13]; Homo sapiens, HOP-92, read-out: LC50
  CC50: 42.2 µM
[13]; Homo sapiens, HOP-92, read-out: TGI
  IC (TGI): 13.1 µM
[14]; Homo sapiens, NCI-H226
  GI50: 14.1 µM
[14]; Homo sapiens, NCI-H226, read-out: LC50
  CC50: 81.3 µM
[14]; Homo sapiens, NCI-H226, read-out: TGI
  IC (TGI): 33.8 µM
[14]; NCI-H226, Log10 Concentration −4.0
  Percent Growth: −62%
[14]; NCI-H226, Log10 Concentration −5.0
  Percent Growth: 70%
[14]; NCI-H226, Log10 Concentration −6.0
  Percent Growth: 91%
[14]; NCI-H226, Log10 Concentration −7.0
  Percent Growth: 92%
[14]; NCI-H226, Log10 Concentration −8.0
  Percent Growth: 94%
[15]; Homo sapiens, NCI-H23
  GI50: 11.3 µM
[15]; Homo sapiens, NCI-H23, read-out: LC50
  CC50: 78.8 µM
[15]; Homo sapiens, NCI-H23, read-out: TGI
  IC (TGI): 29.9 µM
[15]; NCI-H23, Log10 Concentration −4.0
  Percent Growth: −62%
[15]; NCI-H23, Log10 Concentration −5.0
  Percent Growth: 56%
[15]; NCI-H23, Log10 Concentration −6.0
  Percent Growth: 100%
[15]; NCI-H23, Log10 Concentration −7.0
  Percent Growth: 101%
[15]; NCI-H23, Log10 Concentration −8.0
  Percent Growth: 104%
[16]; Homo sapiens, NCI-H460
  GI50: 14.4 µM
[16]; Homo sapiens, NCI-H460, read-out: LC50
  CC50: 97.4 µM
[16]; Homo sapiens, NCI-H460, read-out: TGI
  IC (TGI): 37.5 µM
[16]; NCI-H460, Log10 Concentration −4.0
  Percent Growth: −51%
[16]; NCI-H460, Log10 Concentration −5.0
  Percent Growth: 69%
[16]; NCI-H460, Log10 Concentration −6.0
  Percent Growth: 102%
[16]; NCI-H460, Log10 Concentration −7.0
  Percent Growth: 102%
[16]; NCI-H460, Log10 Concentration −8.0
  Percent Growth: 104%
[17]; Homo sapiens, NCI-H522
  GI50: 1.64 µM
[17]; Homo sapiens, NCI-H522, read-out: LC50
  CC50: 9.29 µM
[17]; Homo sapiens, NCI-H522, read-out: TGI
  IC (TGI): 3.9 µM
[17]; NCI-H522, Log10 Concentration −4.0
  Percent Growth: −69%
[17]; NCI-H522, Log10 Concentration −5.0
  Percent Growth: −54%
[17]; NCI-H522, Log10 Concentration −6.0
  Percent Growth: 76%
[17]; NCI-H522, Log10 Concentration −7.0
  Percent Growth: 96%
[17]; NCI-H522, Log10 Concentration −8.0
  Percent Growth: 95%
